Read-outs that look alike come from different tables or passages of the source.
Experiments:
[1] = tested on: recurrent or metastatic cervical cancer that has progressed after first-line platinum-based treatment
cervical cancer [2] = conditions: patient population of 60% squamous histology; cited from earlier work
cervical cancer [3] = conditions: 5/19; squamous histology only; cited from earlier work
cervical cancer [4] = conditions: 12/98; cited from earlier work
[5] = subgroup with IC chemotherapy selected prior to randomisation: Gemcitabine (n = 108 vs 121)
[6] = subgroup with IC chemotherapy selected prior to randomisation: Irinotecan (n = 26 vs 19)

Compound: Nc1ccn([C@@H]2O[C@H](CO)[C@@H](O)C2(F)F)c(=O)n1 [gemcitabine, reference compound]
- Median OS (95% CI) [1, 5]: 9.0 (7.0-10.6) months
- Median PFS (95% CI) [1, 5]: 2.8 (2.1-3.9) months
- ORR [1, 5]: 5.0%

Compound: CCc1c2c(nc3ccc(OC(=O)N4CCC(N5CCCCC5)CC4)cc13)-c1cc3c(c(=O)n1C2)COC(=O)[C@]3(O)CC [irinotecan, reference compound]
- Median OS (95% CI) [1, 6]: 11.8 (6.9-14.9) months
- Median PFS (95% CI) [1, 6]: 4.2 (1.6-8.3) months
- ORR [1, 6]: 15.8%

Compound: nivolumab
- response rate (cervical cancer [2]): 4%
- objective response rate (cervical cancer [3]): 26.3%

Compound: pembrolizumab
- ORR in the cervical cancer cohort (cervical cancer [4]): 12.2%
